Columns and labels:
N171-82Q HD mice [1] = test: Chronic 6-week treatment: striatal volume and MSN area (DARPP-32 histology); type: in vivo; conditions: N171-82Q mice, 160 mg/kg daily 6 weeks
Procedure: Mice were perfused with PBS, and tissues were fixed in 4% paraformaldehyde for at least 48 hours. Brains were cryoprotected in a 30% sucrose solution for 24 hours and cryosectioned to 40 μm on a Leica SM2010R microtome. Each section through the striatum was collected and floated out in 30% ethylene glycol/15% sucrose solution sequentially in a 12-well plate. Once sections had been placed in each well, deeper sequential sections were added to wells in the same order, leading to each well containing 7 sections, 480 μm apart. Hearts were bisected transversely, and the apical halves were processed and embedded in paraffin. Heart tissue was sectioned to 5 μm on a Microm HM 355S (Thermo) microtome. […]
Striatal volume were estimated by the Cavalieri method on low-power digital images of DARPP-32-stained sections in ImageJ. A 5000 μm^2 area-per-point grid was superimposed randomly over the image, and number of points overlapping the striatum in each section (5 per animal) was counted. The volume was then calculated using the formula V = ∑p∙t∙A(p), where V = estimated volume, p = points per section, t = space between sections, and A(p) = area-per-point. […]
Average MSN area was calculated from high-power digital images of DARPP-32-stained sections in ImageJ. […] At least 700 cells were measured per brain, and the average MSN area was determined per treatment group.

N171-82Q HD mice [2] = test: Isoprenaline cardiac stress: survival, weight, echocardiography, heart weight, cardiomyocyte area, fibrosis; type: in vivo, N171-82Q mice
Procedure: The initial trial consisted in one week of oral dosing in 12 weeks old N171-82Q males. The chronic 6 weeks treatment (Veh n = 15, NV-5297 n = 14) took place from 6 to 12 weeks of age. The cardiac stress took place in animals from 10 to 12 weeks of age (Veh-Sal n = 9, NV-Sal n = 10, Veh-Iso n = 16, NV-Iso n = 11).
Mice were anesthetized with 2% isoflurane and restrained on a stage with electrocardiogram (EKG) sensors. Transthoracic echocardiograms were performed using the Vevo 3100 Imaging System with a linear array MX550D transducer. Images were acquired by an experienced echocardiographer and then analyzed offline using the Vevo LAB analysis software. Parasternal long axis views and short axis views were used to assess left ventricular function. Measurements were performed to evaluate left ventricular dimensions during both systole and diastole of the cardiac cycle. The Vevo LAB left ventricle [LV] analysis tool, LV trace, was used to calculate cardiac output [CO] (heart rate ∙ stroke volume), fractional shortening [FS] (ventricle diameter at the end of the diastole–ventricle diameter at the end of the systole), ejection fraction [EF] (percentage of blood ejected by the left ventricle by heart beat), stroke volume (SV) (blood volume ejected from the left ventricle per beat), heart rate [HR] (bpm), left ventricular mass [LVmass], dimensions and volumes. Both imaging and analysis were performed by an operator blinded to the mice experimental treatment.
Cardiomyocyte area was measured in wheat germ agglutinin-labelled heart sections as previously described. Briefly, sections were cleared and rehydrated through xylene and ethanol, then labelled with WGA conjugated to Alexa Fluor 594 (8 μg/ml, Biotium) per manufacturer’s protocol. Sections were counterstained with Hoechst stain (2 μg/ml, Thermo Scientific). High-power digital images were collected such that the entirety of the left ventricular free wall was represented. A grid was superimposed over each image in ImageJ to randomly select cardiomyocytes sectioned perpendicular to the long axis, and the area of those cells was measured manually. At least 240 cardiomyocytes were measured per section. Cardiomyocyte areas were averaged for each treatment group.
The percent of area occupied by fibrotic tissue was calculated as previously described. Briefly, heart sections were cleared and rehydrated through xylene and ethanol. Sections were counterstained with Weigert’s haematoxylin (Sigma) per manufacturer’s protocol. Collagen was labelled by staining to equilibrium with Picrosirius red (0.1% Direct Red 80, Sigma, in saturated picric acid, Sigma). Bright field and corresponding polarized light digital images were taken such that the entirety of the left ventricular free wall was represented. Image threshold was adjusted to highlight either the entire tissue (bright field) or the fibrotic tissue (polarized) in ImageJ, and percent area occupied by fibrotic tissue was calculated from these images. Large vessels were excluded from the analysis.
Isoprenaline (Sigma) was dissolved in sterile PBS and administered by continuous infusion using implantable mini-osmotic pumps (Alzet) at a dose of 30 mg/kg body mass/day. Pumps were filled and primed in a sterile environment and inserted under 2.5% isoflurane anesthesia into the right dorsal subcutaneous space caudal to the scapulae.
We next tested if daily NV-5297 dosing in HD mice could enable cardiac adaptation to chronic stress. In this experiment, the NV-Sal and Veh-Sal groups have an osmotic pump implant on their back. The presence of this pump makes the echocardiography more challenging, justifying the difference to the baseline groups measurements along with the smaller sample size for this experiment. For this study, we found no significant […] and therefore we focused on the changes within the vehicle-treated groups and within the NV-5297-treated groups. […]

[3] = N171-82Q mice under isoprenaline cardiac stress

## CC(C)(C[C@H](N)C(=O)O)C(F)(F)F [NV-5297, (S)-2-amino-5,5,5-trifluoro-4,4-dimethylpentanoic acid]
N171-82Q HD mice [1]
  medium spiny neuron area: no change
  striatal volume relative to vehicle: significant increases
N171-82Q HD mice [2]; Iso-stressed N171-82Q mice (isoprenaline 30 mg/kg/day, 14 days), NV-5297 160 mg/kg oral daily
  mortality: 45%
N171-82Q HD mice [2]; [3]
  body weight over trial duration: maintained their weight
  cardiac output from baseline: increase
  cardiomyocyte area: increased
  ejection fraction from baseline: increased
  fractional shortening from baseline: increased
  heart fibrosis: devoid of fibrosis
  heart mass: elevated
  stroke volume from baseline: increased
N171-82Q HD mice [2]; N171-82Q mice under isoprenaline cardiac stress (NV-Iso)
  heart rate: maintain a normal heart rate
N171-82Q HD mice [2]; N171-82Q mice with saline implant (NV-Sal group), NV-5297 160 mg/kg oral daily
  survival: 100%
